# Experimental data as given in patent publication US7763615B2, “Ecteinascidin analogs for use as antitumour agents” (priority 2001, dated 2010).
# Key:
# [1] = tested on: NRK-52E, normal rat kidney cells; details: 24 h
# [2] = tested on: L8, normal rat skeletal muscle cells; details: 24 h
# [3] = tested on: FDC-P1, normal mouse myelogeous stem cells; details: 24 h
# PANC-1 = assay: cells; assay type: cell-based; details: PANC-1, 48 hours exposure, SRB
# Method in brief: (§1)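 Human tumour lines grown in RPMI 1640 with 10% FBS were seeded at 5×10^3 cells per well, left 18 hours to attach, then exposed to samples (10 to 10^−8 μg/ml) for 48 hours. Growth was quantified by sulphorhodamine B staining of TCA-fixed cells, with absorbance read at 490 nm.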
# LOVO-DOX = assay: cells; assay type: cell-based
# Method in brief: as §1
# MEL-28 = assay: cells; assay type: cell-based; details: MEL-28, 48 hours exposure, SRB
# Method in brief: as §1
# A549 = assay: cells; assay type: cell-based; details: A549, 48 hours exposure, SRB
# Method in brief: as §1
# LNCAP = assay: cells; assay type: cell-based; details: Homo sapiens, LNCaP, 48 h
# Method in brief: as §1
# IGROV-ET = assay: cells; assay type: cell-based
# Method in brief: as §1
# SK-BR3 = assay: cells; assay type: cell-based; details: SK-BR3, 48 hours exposure, SRB
# Method in brief: as §1
# HT29 = assay: cells; assay type: cell-based; details: Homo sapiens, HT-29, 48 h
# Method in brief: as §1
# LOVO = assay: cells; assay type: cell-based; details: Homo sapiens, LoVo, 48 h
# Method in brief: as §1
# K562 = assay: cells; assay type: cell-based; details: K562, 48 hours exposure, SRB
# Method in brief: as §1
# IGROV = assay: cells; assay type: cell-based
# Method in brief: as §1
# DU145 = assay: cells; assay type: cell-based
# Method in brief: as §1
# [4] = tested on: H9c2 (2-1), normal rat cardiac muscle cells; details: 24 h
# Procedure: In order to assess the cytotoxicity of the drugs to normal cells, we used 96 well plates plated at a density of 5000 cells per well (except for the FDC-P1 which were plated at 12,000 cells per well) with normal cell lines (ATCC, Table 1) maintained as per the directions of the ATCC: AML-12, normal mouse liver cells; NRK-52E, normal rat kidney cells; L8, normal rat skeletal muscle cells; FDC-P1, normal mouse myelogeous stem cells; and H9c2 (2-1), normal rat cardiac muscle cells. The cells in each plate were permitted to settle overnight before adding the test drug.
# To each well (100 μl medium) 10 μl of drug in media was added at varying concentrations (1×10-10-0.01 mg/ml final concentration) and further incubated overnight at 37° C. with 5% CO2. After 24 h the following assays were performed. All experiments were repeated at least 3 times and were assayed in duplicate.
# MTS assay (CellTiter 96 aqueous) was performed according to the manufacturer's (Promega) directions (for all cell types). Cell viability (mitochondrial activity) is determined via enzymatic conversion of the formazan substrate.
# SK-OV3 = assay: Inhibition of cells growth by colorimetric assay (SRB), SK-OV3; assay type: cell-based
# Excerpt: (§2) The finality of these assays is to interrupt the growth of a “in vitro” tumor cell culture by means of a continued exhibition of the cells to the sample to be testing.
# (§3) A colorimetric type of assay, using sulphorhodamine B (SRB) reaction has been adapted for a quantitative measurement of cell growth and viability [following the technique described by Philip Skehan, et al. (1990), New colorimetric cytotoxicity assay for anticancer drug screening, J. Natl. Cancer Inst., 82:1107-1112]
# (§4) This form of the assay employs 96 well cell culture microplates of 9 mm diameter (Faircloth, 1988; Mosmann, 1983). Most of the cell lines are obtained from American Type Culture Collection (ATCC) derived from different human cancer types.
# (§5) Cells are maintained in RPMI 1640 10% FBS, supplemented with 0.1 g/l penicillin and 0.1 g/l streptomycin sulphate and then incubated at 37° C., 5% CO2 and 98% humidity. For the experiments, cells were harvested from subconfluent cultures using trypsin and resuspended in fresh medium before plating.
# (§6) Cells are seeded in 96 well microtiter plates, at 5×10^3 cells per well in aliquots of 195 μl medium, and they are allowed to attach to the plate surface by growing in drug free medium for 18 hours. Afterward, samples are added in aliquots of 5 μl in a ranging from 10 to 10^−8 μg/ml, dissolved in DMSO/EtOH/PBS (0.5:0.5:99). After 48 hours exposure, the antitumor effect are measured by the SRB methodology: cells are fixed by adding 50 μl of cold 50% (wt/vol) trichloroacetic acid (TCA) and incubating for 60 minutes at 4° C. Plates are washed with deionized water and dried. One hundred μl of SRB solution (0.4% wt/vol in 1% acetic acid) is added to each microtiter well and incubated for 10 minutes at room temperature. Unbound SRB is removed by washing with 1% acetic acid. Plates are air dried and bound stain is solubilized with Tris buffer. Optical densities are read on a automated spectrophotometric plate reader at a single wavelength of 490 nm.
# (§7) The values for mean+/− SD of data from triplicate wells are calculated. Some parameters for cellular responses can be calculated: GI=growth inhibition, TGI=total growth inhibition (cytostatic effect) and LC=cell killing (cytotoxic effect).
# H-MEC-1 = assay: Inhibition of cells growth by colorimetric assay (SRB), H-MEC-1; assay type: cell-based
# Excerpt: as §2, §3, §4, §5, §6, §7
# [5] = tested on: AML-12, normal mouse liver cells; details: 24 h
smiles,measurement,setting,value
COc1c(C)cc2c(c1O)[C@@H]1C3[C@@H]4SC[C@]5(NC(C)Cc6c5[nH]c5ccc(O)cc65)C(=O)COC[C@@H](c5c6c(c(C)c(OC(C)=O)c54)OCO6)N3[C@@H](O)[C@H](C2)N1C (some centres unmarked) [Compound 37],Kidney,[1],2.92E−08
same,Skeletal,[2],2.22E−08
same,Myelo,[3],4.59E−09
same,GI50,"PANC-1; Homo sapiens, PANC-1, 48 h",3.12 nM
same,IC (TGI),"PANC-1; Homo sapiens, PANC-1, 48 h",11.8 nM
same,CC50,PANC-1; read-out: LC50,3020 nM
same,GI50,"LOVO-DOX; Homo sapiens, 48 h, LOVO-DOX, 48 hours exposure, SRB",61.7 nM
same,CC50,"LOVO-DOX; Homo sapiens, 48 h, read-out: LC50, LOVO-DOX, 48 hours exposure, SRB",12700 nM
same,TGI,"LOVO-DOX; LOVO-DOX, 48 hours exposure, SRB",4.10E−07 Molar
same,GI50,"MEL-28; Homo sapiens, SK-MEL-28, 48 h",2.4 nM
same,IC (TGI),"MEL-28; Homo sapiens, SK-MEL-28, 48 h",6.82 nM
same,CC50,MEL-28; read-out: LC50,33.5 nM
same,TGI,A549,2.17E−08 Molar
same,GI50,"A549; Homo sapiens, A549, 48 h, read-out: GI50",4.23 nM
same,CC50,A549; read-out: LC50,138 nM
same,GI50,"LNCAP; 48 hours exposure, SRB",0.26 nM
same,IC (TGI),"LNCAP; 48 hours exposure, SRB",0.856 nM
same,CC50,"LNCAP; read-out: LC50, LNCAP, 48 hours exposure, SRB",4.75 nM
same,IC (TGI),"IGROV-ET; Homo sapiens, 48 h, IGROV-ET, 48 hours exposure, SRB",119 nM
same,CC50,"IGROV-ET; Homo sapiens, 48 h, read-out: LC50, IGROV-ET, 48 hours exposure, SRB",12700 nM
same,GI50,"IGROV-ET; IGROV-ET, 48 hours exposure, SRB",37.6 nM
same,GI50,SK-BR3,2.96 nM
same,TGI,SK-BR3,6.80E−09 Molar
same,CC50,SK-BR3; read-out: LC50,141 nM
same,GI50,"HT29; HT29, 48 hours exposure, SRB",3.71 nM
same,IC (TGI),"HT29; HT29, 48 hours exposure, SRB",14 nM
same,CC50,"HT29; read-out: LC50, HT29, 48 hours exposure, SRB",12700 nM
same,GI50,"LOVO; 48 hours exposure, SRB",2.92 nM
same,IC (TGI),"LOVO; 48 hours exposure, SRB",8.97 nM
same,CC50,"LOVO; read-out: LC50, LOVO, 48 hours exposure, SRB",12700 nM
same,GI50,"K562; Homo sapiens, K562, 48 h",0.492 nM
same,IC (TGI),"K562; Homo sapiens, K562, 48 h",1.36 nM
same,CC50,K562; read-out: LC50,12.7 nM
same,GI50,"IGROV; 48 hours exposure, SRB",2.82 nM
same,TGI,"IGROV; 48 hours exposure, SRB",7.06E−09 Molar
same,CC50,"IGROV; read-out: LC50, 48 hours exposure, SRB",613 nM
same,GI50,"DU145; DU145, 48 hours exposure, SRB",4.6 nM
same,IC (TGI),"DU145; Homo sapiens, DU-145, 48 h, DU145, 48 hours exposure, SRB",10.6 nM
same,CC50,"DU145; Homo sapiens, DU-145, 48 h, read-out: LC50, DU145, 48 hours exposure, SRB",12700 nM
same,Heart,[4],1.74E−08
same,GI50,"SK-OV3; Homo sapiens, SK-OV-3, 48 h, SK-OV3, 48 hours exposure, SRB",3.57 nM
same,CC50,"SK-OV3; Homo sapiens, SK-OV-3, 48 h, read-out: LC50, SK-OV3, 48 hours exposure, SRB",12700 nM
same,TGI,"SK-OV3; SK-OV3, 48 hours exposure, SRB",1.07E−08 Molar
same,TGI,"H-MEC-1; H-MEC-1, 48 hours exposure, SRB",3.58E−08 Molar
same,GI50,"H-MEC-1; Homo sapiens, HMEC-1, 48 h, H-MEC-1, 48 hours exposure, SRB",2.22 nM
same,CC50,"H-MEC-1; Homo sapiens, HMEC-1, 48 h, read-out: LC50, H-MEC-1, 48 hours exposure, SRB",12700 nM
same,Liver,[5],5.46E−09
